Measurements: patent US20140259881A1, “EXTERMINATION TECHNIQUES UTILIZING TERMITE EGG VOLATILE CALLING PHEROMONE AND QUEEN PHEROMONE” (National University Corporation Okayama University, priority 2009, published 2014)
Entries after “also recorded” stand apart in the source; their conditions may differ.

How the values were obtained:
[1] = tested on: Reticulitermes speratus worker termites; experiment: Rate of carrying mimic eggs coated with reference pheromone plus volatile test sample into the egg mass; format: in vivo; settings: 10% aqueous solution of sample added to lysozyme + β-glucosidase reference pheromone on 0.5 mm glass beads, 25° C., compared to no addition, Tukey-Kramer HSD test
Protocol: 2.0 mg of white-egg lysozyme and 1.0 mg of β-glucosidase were dissolved in a 50% aqueous solution of glycerol (a mixture of lysozyme and β-glucosidase). To this reference pheromone solution were added a 10% aqueous solution of each of the following volatile ingredient samples to examine the effect of enhancing the activity of carrying mimic eggs. The added samples were: butyl butyrate, 1-butanol, 2-butyl butyrate, 2-butanol, 2-methyl-1-butanol, and n-butyl acetate.
To 100 glass beads having a diameter of 0.5 mm were added 2.0 μL/bead of the above-described reference pheromone solution and 2.0 μL/bead of each of the test sample solutions and mixed well for coating the surface of the beads with each test sample.
At 24 hours after the start of the experiment, the rate of carrying mimic eggs into the egg mass was determined (for each of the test samples, experiments were made on the same procedures). Three repetitions were made for each treatment. Carrying rates were subjected to arcsine-root transformation, followed by statistical comparison by analysis of variance and Tukey-Kramer HSD test. […] FIGS. 6 to 11 show rates of carrying mimic eggs coated with each of the test samples into the egg mass after 24 hours.

[2] = tested on: Reticulitermes speratus worker termites; experiment: Inhibitory effect on the differentiation into new termite queens by queen volatile pheromone samples; settings: volatile from unglazed ball, added every day; 25 days; 25° C.; compared to controls; Tukey-Kramer HSD test
[3] = tested on: Reticulitermes speratus worker termites; experiment: Rate of carrying mimic eggs coated with reference pheromone plus volatile test sample into the egg mass; format: in vivo; settings: preliminary experiments
termite = settings: patent documents 2 and 3; cited from earlier work

Molecule	activity of carrying mimic eggs / egg recognition activity (rate of carrying mimic eggs after 24 hours) [1]	further results
CCCC(=O)OC(C)CC (stereo not drawn) [2-butyl butyrate]	no statistical significance, but were observed to have a tendency to enhance the activity of carrying mimic eggs; also recorded: enhance the activity of carrying mimic eggs, as compared to no addition, but there was no difference of statistical significance	–
CCC(C)O (stereo not drawn) [2-butanol]	remarkable increase in the egg recognition activity; also recorded: significantly enhance the activity of carrying mimic eggs	–
CCCCOC(C)=O [n-butyl acetate, reference compound]	no effect of enhancing the activity of carrying mimic eggs	differentiation from worker termite into new termite queens [2]: no effect of inhibiting the differentiation into new termite queens
CCCC(=O)O [butyric acid]	–	effect of increasing the egg-carrying activity [3]: no effect of increasing the egg-carrying activity
CCC(C)CO (stereo not drawn) [2-methyl-1-butanol]	remarkable increase in the egg recognition activity; also recorded: significantly enhance the activity of carrying mimic eggs	–
lysozyme	–	egg-recognition pheromone activity alone (termite): demonstrated to have egg-recognition pheromone activity alone
CCCCOC(=O)CCC [butyl butyrate]	no statistical significance, but were observed to have a tendency to enhance the activity of carrying mimic eggs; also recorded: enhance the activity of carrying mimic eggs, as compared to no addition, but there was no difference of statistical significance	–
CCCCO [1-butanol]	remarkable increase in the egg recognition activity; also recorded: significantly enhance the activity of carrying mimic eggs	–
